Measurements published in patent US20260317357A1, “HETEROCYCLIC COMPOUNDS AS STING AGONISTS” (LigaChem Biosciences Inc., priority 2022, published 2026).

Legend:
hSTING-R232 = molecular target: T1, hSTING-R232 (Homo sapiens, UniProt Q86WV6, H232R); experiment: STING agonist activity, THP1 Dual KI-hSTING-R232 IRF luciferase reporter cells; format: cell-based; conditions: 24 hours
T1 construct: host or cells: THP1 Dual KI-hSTING-R232 (STING HAQ gene removed, R232 variant gene introduced)
Method: (§1) In order to evaluate the activity of the STING agonist, reporter cells from Invivogen were used. The cell lines used in the experiment were THP1 Dual™ (InvivoGen #thpd-nfis) expressing the endogenous STING variant HAQ and THP1 Dual™ KI-hSTING-R232 (InvivoGen #thpd-r232/h232) into which the STING R232 or H232 variant gene was injected after removing the STING HAQ gene. The cell lines have a luciferase reporter gene inserted below the IFN regulatory factor (IRF) promoter, and thus the activity of the IFN regulatory factor (IRF) mechanism can be evaluated through luciferase expression.
(§2) The reporter cells were plated at 9.0×10^4 cells/100 μL per well in a 96-well plate using RPMI 1640 medium (Gibco, #22400097) supplemented with 10% heat-inactivated FBS and 1×Antibiotic-Antimycotic (Gibco, #15240062), 10 μg/mL blasticidin (Gibco, #A1113902), and 100 μg/mL Zeocin (Gibco, #R25005). The plated cells were cultured at 37° C., 5% CO2 for 24 hours, and then treated with 100 μL of the serially diluted compound in each well, and then cultured at 37° C., 5% CO2 for 24 hours. After culturing, 20 μL of the cell culture medium was transferred to a 96 well white plate, and QUANTI-Luc™ (InvivoGen #rep-qlcl) was added at 50 µL/well. Using a microplate reader (Perkin Elmer), the value of the luminescence signal increased in the experimental group treated with the drug compared to the control group not treated with the drug was calculated. EC50 values were derived according to the concentration of the compound using GraphPad Prism.

human STING = molecular target: T2, human STING (Homo sapiens, UniProt Q86WV6); experiment: Direct binding potency, HUMAN STING WT BINDING KIT (Cisbio); conditions: in vitro
T2 construct: purchased Cisbio #64BDSTGPEG
T2 sequence (Q86WV6 whole entry): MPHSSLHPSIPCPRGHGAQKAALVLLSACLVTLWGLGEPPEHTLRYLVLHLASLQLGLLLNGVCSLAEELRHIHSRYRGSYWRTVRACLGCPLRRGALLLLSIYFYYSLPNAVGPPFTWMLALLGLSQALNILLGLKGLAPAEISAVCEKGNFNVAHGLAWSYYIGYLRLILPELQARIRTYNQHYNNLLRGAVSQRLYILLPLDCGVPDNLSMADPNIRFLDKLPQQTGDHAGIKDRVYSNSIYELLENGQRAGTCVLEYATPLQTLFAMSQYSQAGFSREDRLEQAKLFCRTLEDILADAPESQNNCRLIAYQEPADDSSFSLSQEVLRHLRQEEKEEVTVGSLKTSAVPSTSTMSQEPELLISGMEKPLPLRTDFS
Source text: Additionally, or analysis of direct binding potency of STING agonist compounds described herein to human STING, HUMAN STING WT BINDING KIT (Cisbio, #64BDSTGPEG) was used according to the manufacturer's instruction.

[1] = Pharmacokinetics in Balb/C mouse after single IV dose; format: in vivo; conditions: 1.5 mg/kg; for AUC∞, norm / Cmax, norm: dose-normalized
Method: For in vivo evaluation of STING agonist compounds described herein in naïve Balb/C mouse, single doses of STING agonist compounds were given at 1.5 mg/kg intravenously into female BALB/c mice (Orientbio, South Korea) at 6-8 weeks of age. Pharmacokinetics were studied following injection of the STING agonist compounds into Balb/C mice. Plasma samples were taken at various time points and stored frozen for analysis. The plasma concentrations of the STING agonist compounds at the indicated time points were measured using a LC-MS/MS analysis method.
Briefly, 250 μL of acetonitrile (ACN) solution was added in both 50 µL of sample and 50 µL of plasma containing 10 nM Dextromethorphan (internal standard), and the solutions were mixed vigorously using a vortex mixer for 5 minutes. The samples were then spun down at 14,000 rpm, 4° C. for 5 minutes. 100 μL of supernatants were combined with 100 μL of mobile phase A (0.1% formic acid in water with 5% ACN) and mixed thoroughly. The samples were measured for the STING agonist compounds using a LC-MS/MS (Nexera LC40 (SHIMADZU) and QTRAP4500 (SCIEX)).

hSTING-H232 = molecular target: T3, hSTING-H232 (Homo sapiens, UniProt Q86WV6); experiment: STING agonist activity, THP1 Dual reporter cells with STING H232 variant; format: cell-based; conditions: IRF luciferase, 24 hours
T3 construct: host or cells: THP1 Dual KI-hSTING (STING HAQ gene removed, H232 variant gene introduced)
T3 sequence (Q86WV6 whole entry): as above
Method: as §1, §2

hSTING-HAQ = molecular target: T4, hSTING-HAQ (Homo sapiens, UniProt Q86WV6, G230A/H232R/R293Q/R71H); experiment: STING agonist activity, THP1 Dual reporter cells expressing endogenous STING variant HAQ; format: cell-based; conditions: IRF luciferase, 24 hours
T4 construct: expressing the endogenous STING variant HAQ; host or cells: THP1 Dual
T4 sequence (Q86WV6 whole entry R71H/G230A/H232R/R293Q): as the sequence (Q86WV6 whole entry) above, with R71H, G230A, H232R, R293Q counted along it
Method: as §1, §2

[2] = In vitro cell cytotoxicity in PBMCs (CellTiter-Glo); format: cell-based
Method: PBMCs were also purchased from […]™ (#700025.2). The cells (8.0×10^4 cells per well) were seeded in a flat-bottomed 96-well plate in RPMI 1640 medium (Gibco, #22400097) with 10% heat-inactivated FBS and 1×Antibiotic-Antimycotic (Gibco, #15240062) and rested for 24 hours at 37° C. […] After 72 hours, the cell viability was measured using CellTiter-Glo Luminescent Cell Viability Assay (Promega, #G7573) according to the manufacture's instruction. The signal was detected using an EnVision Xcite multilabel reader and data were analyzed using GraphPad Prism 8 software.
To verify the effect of the STING agonist compounds in normal cell cytotoxicity, the PBMCs were treated with the STING agonist compounds for 3 days and measured the percentage of cell death.

T1 sequence (Q86WV6 whole entry H232R): as the sequence (Q86WV6 whole entry) above, with H232R counted along it

SMILES	EC50 (hSTING-R232) [nM]	also measured
CCn1nc(C)cc1C(=O)Nc1nc2cc(C(N)=O)cc(OC/C=C/Cn3cc(N)cn3)c2n1C/C=C/Cn1c(NC(=O)c2cc(C)nn2CC)nc2cc(C(N)=O)cc(OCCCS(C)(=N)=O)c21 (centres unmarked) [Compound 197]	8.13	–
CCc1nc(C)oc1C(=O)Nc1nc2cc(C(N)=O)cc(OC/C=C/Cn3cc(N)cn3)c2n1C/C=C/Cn1c(NC(=O)c2cc(C)nn2CC)nc2cc(C(N)=O)cc(OC)c21 [Compound 222]	2.72	–
CCn1nc(C)cc1C(=O)Nc1nc2cc(C(N)=O)cc(OC)c2n1C/C=C/Cn1c(NC(=O)c2cc(C)nn2CC)nc2cc(C(N)=O)cc(OC/C=C/COC(=O)N(C)CCNC)c21 [Compound 221]	3.48	–
CCn1nc(C)cc1C(=O)Nc1nc2cc(C(N)=O)cc(OC)c2n1C/C=C/Cn1c(NC(=O)c2cc(C)nn2CC)nc2cc(C(N)=O)cc(OC/C=C/CN3CCNCC3)c21 [Compound 23]	6.43	–
CCn1nc(C)cc1C(=O)Nc1nc2cc(C(N)=O)cc(OC)c2n1C/C=C/Cn1c(NC(=O)c2cc(C)nn2CC)nc2cc(C(N)=O)cc(OC/C=C\CN3CCC(N)CC3)c21 [Compound 38]	10.3	–
CCn1nc(C)cc1C(=O)Nc1nc2cc(C(N)=O)cc(OC)c2n1C/C=C/Cn1c(NC(=O)c2cc(C)nn2CC)nc2cc(C(N)=O)cc(OC/C=C/Cn3cc(CN)nn3)c21 [Compound 139]	2.25	–
CCc1nc(C)sc1C(=O)Nc1nc2cc(C(N)=O)cc(OC/C=C/Cn3cc(N)cn3)c2n1C/C=C/Cn1c(NC(=O)c2cc(C)nn2CC)nc2cc(C(N)=O)cc(OC)c21 [Compound 155]	2.6	EC50 (human STING): 0.4 nM
CCn1nc(C)cc1C(=O)Nc1nc2cc(C(N)=O)cc(OC)c2n1C/C=C/Cn1c(NC(=O)c2cc(C)nn2CC)nc2cc(C(N)=O)cc(OC/C=C/Cn3cc(NCCC(=O)O)cn3)c21 [Compound 175]	3.96	–
CCn1nc(C)cc1C(=O)Nc1nc2cc(C(N)=O)cc(OC)c2n1C/C=C/Cn1c(NC(=O)c2cc(C)nn2CC)nc2cc(C(N)=O)cc(OC/C=C/CN)c21 [Compound 145]	2.23	–
CCc1nc(C)oc1C(=O)Nc1nc2cc(C(N)=O)cnc2n1C/C=C/Cn1c(NC(=O)c2oc(C)nc2CC)nc2cc(C(N)=O)cc(OCCCO)c21 [Comparative #2, reference compound]	3.39	EC50 (hSTING-H232): 9.5 nM; AUC∞, norm ([1]; n = 3, plasma): 0.05 ± 0.01 kg·h/L; Cmax, norm ([1]; n = 3, plasma): 0.16 ± 0.02 kg/L; EC50 (hSTING-HAQ): 89.4 nM
CCn1nc(C)cc1C(=O)Nc1nc2cc(C(N)=O)cc(OC)c2n1C/C=C/Cn1c(NC(=O)c2cc(C)nn2CC)nc2cc(C(N)=O)cc(OCCCN3CCOCC3)c21 [Comparative #1, reference compound]	–	CC50 at 72 h [2]: 3.3 nM; AUC∞, norm ([1]; n = 3, plasma): 0.66 ± 0.07 kg·h/L; Cmax, norm ([1]; n = 3, plasma): 1.94 ± 0.30 kg/L
CCn1nc(C)cc1C(=O)Nc1nc2cc(C(N)=O)cc(OC)c2n1C/C=C/Cn1c(NC(=O)c2cc(C)nn2CC)nc2cc(C(N)=O)cc(OC/C=C/CNC(=O)N3CCNCC3)c21 [Compound 147]	4.03	–
CCn1nc(C)cc1C(=O)Nc1nc2cc(C(N)=O)cc(OC)c2n1C/C=C/Cn1c(NC(=O)c2cc(C)nn2CC)nc2cc(C(N)=O)cc(OC/C=C/[C@@H]3CCCN3)c21 [Compound 120]	2.25	–
CCn1nc(C)cc1C(=O)Nc1nc2cc(C(N)=O)cc(OC)c2n1C/C=C/Cn1c(NC(=O)c2cc(C)nn2CC)nc2cc(C(N)=O)cc(OC/C=C/CC3CCNCC3)c21 [Compound 89]	6.97	–
CCc1nc(C)oc1C(=O)Nc1nc2cc(C(N)=O)cc(OC/C=C/Cn3cc(N)cn3)c2n1C/C=C/Cn1c(NC(=O)c2cc(C)nn2CC)nc2cc(C(N)=O)cc(OC)c21 [Compound 151]	2.21	EC50 (human STING): 0.13 nM
CCn1nc(C)cc1C(=O)Nc1nc2cc(C(N)=O)cc(OC)c2n1C/C=C/Cn1c(NC(=O)c2cc(C)nn2CC)nc2cc(C(N)=O)cc(OC/C=C\CN3CCNCC3=O)c21 [Compound 43]	2.81	–
CCn1nc(C)cc1C(=O)Nc1nc2cc(C(N)=O)cc(OC)c2n1C/C=C/Cn1c(NC(=O)c2cc(C)nn2CC)nc2cc(C(N)=O)cc(OCCCS(C)(=N)=O)c21 (centres unmarked) [Compound 187]	4.13	–

More lines, main results first:

EC50 (hSTING-R232) [nM]	SMILES	also measured
1.36	CCn1nc(C)cc1C(=O)Nc1nc2cc(C(N)=O)cc(OC)c2n1C/C=C/Cn1c(NC(=O)c2cc(C)nn2CC)nc2cc(C(N)=O)cc(OC/C=C/Cn3ncc(CN)n3)c21 [Compound 110]	–
0.93	CCn1nc(C)cc1C(=O)Nc1nc2cc(C(N)=O)cc(OC)c2n1C/C=C/Cn1c(NC(=O)c2cc(C)nn2CC)nc2cc(C(N)=O)cc(OC/C=C\CN3CCOCC3)c21 [Compound 33]	–
0.47	CCn1nc(C)cc1C(=O)Nc1nc2cc(C(N)=O)cc(OC)c2n1C/C=C/Cn1c(NC(=O)c2cc(C)nn2CC)nc2cc(C(N)=O)cc(OC/C=C/Cn3ncc4cc(N)ccc43)c21 [Compound 127]	–
0.96	CCn1nc(C)cc1C(=O)Nc1nc2cc(C(N)=O)cc(OC)c2n1C/C=C/Cn1c(NC(=O)c2cc(C)nn2CC)nc2cc(C(N)=O)cc(OC/C=C/Cn3cc(N)c(C(=O)OC)n3)c21 [Compound 163]	–
0.7	CCn1nc(C)cc1C(=O)Nc1nc2cc(C(N)=O)cc(OC)c2n1C/C=C/Cn1c(NC(=O)c2cc(C)nn2CC)nc2cc(C(N)=O)cc(OCC#CCn3cc(N)cn3)c21 [Compound 178]	–
0.33	CCn1nc(C)cc1C(=O)Nc1nc2cc(C(N)=O)cc(OC)c2n1C/C=C/Cn1c(NC(=O)c2cc(C)nn2CC)nc2cc(C(N)=O)cc(OC/C=C/CN3CCCN3)c21 [Compound 133]	AUC(0-inf) ([1]; n = 3, plasma): 950 ± 110 ng·h/mL; AUC(0-t) ([1]; n = 3, plasma): 920 ± 110 ng·h/mL; C0 ([1]; n = 3, plasma): 4500 ± 850 ng/mL; Cmax ([1]; n = 3, plasma): 2650 ± 400 ng/mL; AUC∞, norm ([1]; n = 3, plasma): 0.63 ± 0.07 kg·h/L; Cmax, norm ([1]; n = 3, plasma): 1.76 ± 0.27 kg/L; clearance ([1]; plasma, n = 3): 26.5 mL/min/kg; half-life ([1]; plasma, n = 3): 1.61 ± 0.02 h; Vd ([1]; plasma, n = 3, read-out: VSS): 1.39 ± 0.21 L/kg; EC50 (human STING): 0.43 nM
1.75	CCn1nc(C)cc1C(=O)Nc1nc2cc(C(N)=O)cc(OC)c2n1C/C=C/Cn1c(NC(=O)c2cc(C)nn2CC)nc2cc(C(N)=O)cc(OC/C=C/COc3cccc(N)c3)c21 [Compound 95]	–
1.17	CCn1nc(C)cc1C(=O)Nc1nc2cc(C(N)=O)cc(OC)c2n1C/C=C/Cn1c(NC(=O)c2cc(C)nn2CC)nc2cc(C(N)=O)cc(OC/C=C/CNC(=N)N)c21 [Compound 166]	–
0.54	CCn1nc(C)cc1C(=O)Nc1nc2cc(C(N)=O)cc(OC)c2n1C/C=C/Cn1c(NC(=O)c2cc(C)nn2CC)nc2cc(C(N)=O)cc(OC/C=C/CN3CCOCC3)c21 [Compound 13]	–
1.04	CCn1nc(C)cc1C(=O)Nc1nc2cc(C(N)=O)cc(OC)c2n1C/C=C/Cn1c(NC(=O)c2cc(C)nn2CC)nc2cc(C(N)=O)cc(OC/C=C/Cn3cc(N)c(C(=O)O)n3)c21 [Compound 164]	–
0.69	CCn1nc(C)cc1C(=O)Nc1nc2cc(C(N)=O)cc(OC)c2n1C/C=C/Cn1c(NC(=O)c2cc(C)nn2CC)nc2cc(C(N)=O)cc(OCC#CCN3CCOCC3)c21 [Compound 48]	–
0.85	CCn1nc(C)cc1C(=O)Nc1nc2cc(C(N)=O)cc(O)c2n1C/C=C/Cn1c(NC(=O)c2cc(C)nn2CC)nc2cc(C(N)=O)cc(OC/C=C/Cn3cc(N)cn3)c21 [Compound 69]	–
